Source: ChEMBL document CHEMBL4422651, “Revisiting tubercidin against kinetoplastid parasites: Aromatic substitutions at position 7 improve activity and reduce toxicity” (Eur J Med Chem, 2019)
Calls of active or inactive are those of the source. No cut-off for these calls is given here.

What was measured:
[1] = test system: Trypanosoma brucei brucei; experiment: Antitrypanosomal activity against Trypanosoma brucei brucei Squib 427 after 48 hrs by alamar blue assay; assay type: functional, organism-based; details: Squib 427, 48 h
[2] = test system: Trypanosoma brucei rhodesiense; experiment: Antitrypanosomal activity against Trypanosoma brucei rhodesiense STIB-900 after 48 hrs by alamar blue assay; assay type: functional, organism-based; details: STIB-900, 48 h
MRC5 = experiment: Cytotoxicity against human MRC5 cells assessed as reduction in cell viability after 3 days by resazurin dye-based assay; details: MRC5, 72 h
[3] = Selectivity index, ratio of EC50 for human MRC5 cells to EC50 for Trypanosoma brucei brucei Squib 427; assay type: toxicity; details: read-out: Ratio EC50
[4] = Selectivity index, ratio of EC50 for human MRC5 cells to EC50 for Trypanosoma brucei rhodesiense STIB-900; assay type: toxicity; details: read-out: Ratio EC50
Trypanosoma cruzi = experiment: Antitrypanosomal activity against nifurtimox-sensitive Trypanosoma cruzi Tulahuen CL2 harboring beta-galactosidase infected in human MRC5 cells after 7 days by resazurin dye-based assay; assay type: functional, organism-based

Q: Which results are given for `Nc1ncnc2c1c(-c1ccccc1F)cn2[C@@H]1O[C@H](CO)[C@@H](O)[C@H]1O`?
A: EC50 [1]: 33.3 µM; EC50 [2]: 26.3 µM; EC50 (MRC5): 61 µM; selectivity ratio [3]: 1.8; selectivity ratio [4]: 2.3; Activity (Trypanosoma cruzi): inactive

Q: Which EC50 [1] does the source give for `Cc1ccnc(-c2cn([C@@H]3O[C@H](CO)[C@@H](O)[C@H]3O)c3ncnc(N)c23)c1` here?
A: 38.2 µM

Q: What about the EC50 [2] of the same molecule?
A: 25.1 µM

Q: And the EC50 (MRC5)?
A: > 64 µM

Q: And the selectivity ratio [3]?
A: > 1.7

Q: What about the selectivity ratio [4] of the same molecule?
A: > 2.5

Q: And the Activity (Trypanosoma cruzi)?
A: inactive

Q: For `COc1ccc(-c2cn([C@@H]3O[C@H](CO)[C@@H](O)[C@H]3O)c3ncnc(N)c23)cc1`, which EC50 [1] is on record?
A: 41.6 µM

Q: What about the EC50 (MRC5) of the same molecule?
A: 28 µM

Q: And the selectivity ratio [3]?
A: 0.67

Q: And the Activity (Trypanosoma cruzi)?
A: inactive

Q: For `Nc1ncnc2c1c(-c1cccc(Cl)n1)cn2[C@@H]1O[C@H](CO)[C@@H](O)[C@H]1O`, which EC50 [1] is on record?
A: 1.75 µM

Q: What about the EC50 [2] of the same molecule?
A: 0.62 µM

Q: And the EC50 (MRC5)?
A: > 64 µM

Q: What about the selectivity ratio [3] of the same molecule?
A: > 37

Q: What about the selectivity ratio [4] of the same molecule?
A: > 103

Q: And the Activity (Trypanosoma cruzi)?
A: inactive

Q: For `Nc1ncnc2c1c(-c1ccccc1)cn2[C@@H]1O[C@H](CO)[C@@H](O)[C@H]1O`, which EC50 [1] is on record?
A: 32.3 µM

Q: What about the EC50 [2] of the same molecule?
A: 4.1 µM

Q: And the EC50 (MRC5)?
A: 56.2 µM

Q: And the selectivity ratio [3]?
A: 1.7

Q: And the selectivity ratio [4]?
A: 14

Q: And the Activity (Trypanosoma cruzi)?
A: inactive

Q: With `Cn1cncc1-c1cn([C@@H]2O[C@H](CO)[C@@H](O)[C@H]2O)c2ncnc(N)c12` as the molecule, how does the EC50 [1] read?
A: 33.3 µM

Q: What about the EC50 (MRC5) of the same molecule?
A: > 64 µM

Q: What about the selectivity ratio [3] of the same molecule?
A: > 1.9

Q: And the Activity (Trypanosoma cruzi)?
A: inactive

Q: Which results are given for `Cc1ccc(-c2cn([C@@H]3O[C@H](CO)[C@@H](O)[C@H]3O)c3ncnc(N)c23)cc1`?
A: EC50 [1]: 29.1 µM; EC50 (MRC5): 26.2 µM; selectivity ratio [3]: 0.9; Activity (Trypanosoma cruzi): inactive

Q: For `Nc1ncnc2c1c(-c1cnccn1)cn2[C@@H]1O[C@H](CO)[C@@H](O)[C@H]1O`, which EC50 [1] is on record?
A: 1.95 µM

Q: And the EC50 (MRC5)?
A: 0.55 µM

Q: What about the selectivity ratio [3] of the same molecule?
A: 0.28

Q: What about the Activity (Trypanosoma cruzi) of the same molecule?
A: inactive

Q: For `Cn1cnc(-c2cn([C@@H]3O[C@H](CO)[C@@H](O)[C@H]3O)c3ncnc(N)c23)c1`, which EC50 [1] is on record?
A: 4.76 µM

Q: What about the EC50 (MRC5) of the same molecule?
A: 23.4 µM

Q: What about the selectivity ratio [3] of the same molecule?
A: 4.9

Q: And the Activity (Trypanosoma cruzi)?
A: inactive

Q: Which results are given for `Nc1ncnc2c1c(-c1cc(Cl)ccn1)cn2[C@@H]1O[C@H](CO)[C@@H](O)[C@H]1O`?
A: EC50 [1]: 8.92 µM; EC50 [2]: 6.88 µM; EC50 (MRC5): 27.3 µM; selectivity ratio [3]: 3.1; selectivity ratio [4]: 4; Activity (Trypanosoma cruzi): inactive

Q: For `Nc1ncnc2c1c(-c1ccc(Cl)cn1)cn2[C@@H]1O[C@H](CO)[C@@H](O)[C@H]1O`, which EC50 [1] is on record?
A: 8.97 µM

Q: And the EC50 [2]?
A: 4.6 µM

Q: What about the EC50 (MRC5) of the same molecule?
A: > 64 µM

Q: And the selectivity ratio [3]?
A: > 7.1

Q: And the selectivity ratio [4]?
A: > 13

Q: What about the Activity (Trypanosoma cruzi) of the same molecule?
A: inactive

Q: Which EC50 [1] does the source give for `Nc1ncnc2c1c(-c1ccc3ccccc3n1)cn2[C@@H]1O[C@H](CO)[C@@H](O)[C@H]1O` here?
A: 6.45 µM

Q: And the EC50 [2]?
A: 3.72 µM

Q: What about the EC50 (MRC5) of the same molecule?
A: > 64 µM

Q: What about the selectivity ratio [3] of the same molecule?
A: > 9.9

Q: What about the selectivity ratio [4] of the same molecule?
A: > 17

Q: What about the Activity (Trypanosoma cruzi) of the same molecule?
A: inactive

Q: With `Cc1ccc(C(=O)Nc2ccc(S(=O)(=O)O)c3cc(S(=O)(=O)O)cc(S(=O)(=O)O)c23)cc1NC(=O)c1cccc(NC(=O)Nc2cccc(C(=O)Nc3cc(C(=O)Nc4ccc(S(=O)(=O)O)c5cc(S(=O)(=O)O)cc(S(=O)(=O)O)c45)ccc3C)c2)c1` [SURAMIN] as the molecule, how does the EC50 [1] read?
A: 0.05 µM

Q: And the EC50 [2]?
A: 0.04 µM

Q: What about the EC50 (MRC5) of the same molecule?
A: > 64 µM

Q: And the selectivity ratio [3]?
A: > 1280

Q: And the selectivity ratio [4]?
A: > 1600

Q: What does the source list for `Nc1ncnc2c1c(-c1ncccn1)cn2[C@@H]1O[C@H](CO)[C@@H](O)[C@H]1O`?
A: EC50 [1]: 2.26 µM; EC50 (MRC5): 14.3 µM; selectivity ratio [3]: 6.3; Activity (Trypanosoma cruzi): inactive

Q: Which EC50 [1] does the source give for `Nc1ncnc2c1c(-c1nccc3ccccc13)cn2[C@@H]1O[C@H](CO)[C@@H](O)[C@H]1O` here?
A: > 64 µM

Q: What about the EC50 [2] of the same molecule?
A: 55.6 µM

Q: And the EC50 (MRC5)?
A: > 64 µM

Q: And the selectivity ratio [4]?
A: > 1.2

Q: What about the Activity (Trypanosoma cruzi) of the same molecule?
A: inactive

Q: With `Nc1ncnc2c1c(-c1cncnc1)cn2[C@@H]1O[C@H](CO)[C@@H](O)[C@H]1O` as the molecule, how does the EC50 [1] read?
A: 52.4 µM

Q: What about the EC50 (MRC5) of the same molecule?
A: > 64 µM

Q: And the selectivity ratio [3]?
A: > 1.2

Q: And the Activity (Trypanosoma cruzi)?
A: inactive
